Data taken from ChEMBL document CHEMBL1201862, “PubChem BioAssay data set” (2004).
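Dose response: 5 concentrations. Exposure: 48 h. Format: 96-well plates. Endpoint: linear interpolation; highest concentration if not reached. Here, GI50 denotes the concentration required for 50% inhibition of growth.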 The source made the active and inactive calls. No stated cut-off is given here; in the data, active = GI50 up to about 1.1 µM and inactive = higher.

Legend:
Experiment in all cases: DTP human tumour cell line panel, 48 h
UO-31 = tested on: UO-31
OVCAR-3 = tested on: OVCAR-3
M14 = tested on: M14
SR = tested on: SR
A549 = tested on: A549
UACC-257 = tested on: UACC-257
UACC-62 = tested on: UACC-62
SF-268 = tested on: SF-268
COLO 205 = tested on: COLO 205
CCRF-CEM = tested on: CCRF-CEM
SK-MEL-28 = tested on: SK-MEL-28
SNB-75 = tested on: SNB-75
ACHN = tested on: ACHN
SW-620 = tested on: SW-620
IGROV-1 = tested on: IGROV-1
NCI-H23 = tested on: NCI-H23
Malme-3M = tested on: Malme-3M
RXF 393 = tested on: RXF 393

SMILES | GI50 (UO-31) | GI50 (OVCAR-3) | GI50 (M14) | GI50 (SR) | GI50 (A549) | GI50 (UACC-257) | GI50 (UACC-62) | GI50 (SF-268) | GI50 (COLO 205) | GI50 (CCRF-CEM) | GI50 (SK-MEL-28) | GI50 (SNB-75) | GI50 (ACHN) | GI50 (SW-620) | GI50 (IGROV-1) | GI50 (NCI-H23) | GI50 (Malme-3M) | GI50 (RXF 393)
CCOC(=O)C1=C(C)NC2=C(C(=O)N(c3ccccc3)C2c2ccccc2)C1c1ccccc1 (configuration not stated) | 19.8 µM (inactive) | 12.3 µM (inactive) | 16.7 µM (inactive) | 16.9 µM (inactive) | 17.8 µM (inactive) | 18.2 µM (inactive) | 12.6 µM (inactive) | 15.7 µM (inactive) | 18.7 µM (inactive) | 21.2 µM (inactive) | 17.7 µM (inactive) | 12.3 µM (inactive) | 14.1 µM (inactive) | 19.8 µM (inactive) | 15.4 µM (inactive) | 17.2 µM (inactive) | 17.9 µM (inactive) | 
CC(=O)n1c(=O)c2cc3c(=O)n(-c4cccc(C#N)c4)c(=O)c3cc2c1=O | > 100 µM (inactive) | > 100 µM (inactive) | > 100 µM (inactive) |  | > 100 µM (inactive) | > 100 µM (inactive) | > 100 µM (inactive) | > 100 µM (inactive) | > 100 µM (inactive) | > 100 µM (inactive) | > 100 µM (inactive) | 23.7 µM (inactive) | > 100 µM (inactive) | > 100 µM (inactive) | > 100 µM (inactive) | > 100 µM (inactive) | > 100 µM (inactive) | > 100 µM (inactive)
CCN(/N=C1\CC2C=CCN(C2)C(=O)Cc2c1[nH]c1ccccc21)S(=O)(=O)c1ccc(C)cc1 (configuration not stated) | 39.4 µM (inactive) |  |  | 64.4 µM (inactive) | 49.8 µM (inactive) | 94.2 µM (inactive) | 38.8 µM (inactive) |  | 68.2 µM (inactive) | > 100 µM (inactive) |  | 35.6 µM (inactive) | > 100 µM (inactive) | 78 µM (inactive) | 68.4 µM (inactive) | 87.5 µM (inactive) | > 100 µM (inactive) | 
c1cncc(CSc2nc3ccccc3nc2-c2cccs2)c1 | 36.4 µM (inactive) | 20.9 µM (inactive) | 92.5 µM (inactive) | 40.9 µM (inactive) | 53.6 µM (inactive) | > 100 µM (inactive) |  | 7.71 µM (inactive) | > 100 µM (inactive) | 30.6 µM (inactive) | > 100 µM (inactive) | > 100 µM (inactive) | 36.9 µM (inactive) | 91.4 µM (inactive) |  | > 100 µM (inactive) | 46.1 µM (inactive) | 
Cc1cc(C)n2c(-c3ccccc3)c(C)cc2n1 | 34.9 µM (inactive) | 25.6 µM (inactive) | 43.5 µM (inactive) |  | 75.5 µM (inactive) | > 100 µM (inactive) | 28.2 µM (inactive) | > 100 µM (inactive) | 43.5 µM (inactive) | 1.09 µM (active) | > 100 µM (inactive) | 23.1 µM (inactive) | 95.7 µM (inactive) | 34 µM (inactive) | 66.2 µM (inactive) | 41.1 µM (inactive) | 49.4 µM (inactive) | 39.4 µM (inactive)
COc1ccc(NC(=O)CCc2cc(-c3ccc(O)c(OC)c3)nc(NC#N)n2)cc1 | > 100 µM (inactive) | > 100 µM (inactive) | > 100 µM (inactive) | > 100 µM (inactive) | > 100 µM (inactive) | > 100 µM (inactive) | > 100 µM (inactive) | > 100 µM (inactive) | > 100 µM (inactive) | > 100 µM (inactive) | > 100 µM (inactive) |  | > 100 µM (inactive) | > 100 µM (inactive) | > 100 µM (inactive) | > 100 µM (inactive) | > 100 µM (inactive) | > 100 µM (inactive)
O=C(NN1C(=O)C(Cl)C1c1ccccc1Cl)c1ccccc1O (configuration not stated) | > 100 µM (inactive) | > 100 µM (inactive) | > 100 µM (inactive) |  | > 100 µM (inactive) | > 100 µM (inactive) | > 100 µM (inactive) | 71.1 µM (inactive) |  | > 100 µM (inactive) | > 100 µM (inactive) | > 100 µM (inactive) | > 100 µM (inactive) |  |  |  | > 100 µM (inactive) | 15.9 µM (inactive)
CO/N=C(/C(=O)Nc1c[n+](CC(=O)[O-])cs1)c1csc(N)n1 | > 100 µM (inactive) | > 100 µM (inactive) | > 100 µM (inactive) |  | > 100 µM (inactive) | > 100 µM (inactive) | > 100 µM (inactive) | > 100 µM (inactive) | > 100 µM (inactive) | > 100 µM (inactive) |  |  | > 100 µM (inactive) | > 100 µM (inactive) | > 100 µM (inactive) | > 100 µM (inactive) | > 100 µM (inactive) | 
C=C(c1ccccc1)c1cc2c(=O)[nH]ccc2n1C | 18.5 µM (inactive) | 24.8 µM (inactive) | 29.2 µM (inactive) |  | 31.7 µM (inactive) | 37.1 µM (inactive) | 28.5 µM (inactive) | 33.3 µM (inactive) | 15.9 µM (inactive) | 31.3 µM (inactive) | 44.7 µM (inactive) | 11.9 µM (inactive) | 35.7 µM (inactive) | 28.5 µM (inactive) | 44.4 µM (inactive) | 30.1 µM (inactive) | 30.1 µM (inactive) | 19.3 µM (inactive)
Clc1ccc(-c2nnc(-c3nn(-c4ccccc4)c4nc5ccccc5nc34)o2)cc1 | > 100 µM (inactive) | 34.1 µM (inactive) | 48.3 µM (inactive) |  | > 100 µM (inactive) | 67.5 µM (inactive) | 67.8 µM (inactive) | 69.3 µM (inactive) | > 100 µM (inactive) | 28.2 µM (inactive) | > 100 µM (inactive) | 95.1 µM (inactive) | > 100 µM (inactive) | 62.4 µM (inactive) | 65.3 µM (inactive) | 42.4 µM (inactive) | 84.3 µM (inactive) | 93.3 µM (inactive)
COc1ccc(-c2cc(=O)c3c(O)cccc3o2)c(OC)c1OC |  | > 100 µM (inactive) | > 100 µM (inactive) |  | 26.6 µM (inactive) | > 100 µM (inactive) | > 100 µM (inactive) | > 100 µM (inactive) | > 100 µM (inactive) | > 100 µM (inactive) | > 100 µM (inactive) | 11.9 µM (inactive) | 61 µM (inactive) | 22.4 µM (inactive) | > 100 µM (inactive) | > 100 µM (inactive) | > 100 µM (inactive) | 20.2 µM (inactive)
O=C(O)CCSC(=O)Nc1ccc([N+](=O)[O-])cc1 | > 100 µM (inactive) | > 100 µM (inactive) | > 100 µM (inactive) | > 100 µM (inactive) | > 100 µM (inactive) | > 100 µM (inactive) |  | > 100 µM (inactive) | > 100 µM (inactive) | > 100 µM (inactive) | > 100 µM (inactive) | 19.4 µM (inactive) | > 100 µM (inactive) | > 100 µM (inactive) | 72.8 µM (inactive) | > 100 µM (inactive) |  | > 100 µM (inactive)
COc1cc([N+](=O)[O-])ccc1NC(=O)c1cccc([N+](=O)[O-])c1O | 16.2 µM (inactive) | 29.4 µM (inactive) | 45 µM (inactive) | 17.8 µM (inactive) | 21.8 µM (inactive) | 17.8 µM (inactive) | 9.2 µM (inactive) | 32.5 µM (inactive) | 16 µM (inactive) | 23.2 µM (inactive) | 21.6 µM (inactive) | 21.1 µM (inactive) | 12.6 µM (inactive) | 30.8 µM (inactive) | 14.1 µM (inactive) | 20.4 µM (inactive) | 7.67 µM (inactive) | 
CCOP(=O)(OCC)C1CCCOC1=O (configuration not stated) | > 100 µM (inactive) | > 100 µM (inactive) | > 100 µM (inactive) |  | > 100 µM (inactive) | > 100 µM (inactive) | > 100 µM (inactive) | > 100 µM (inactive) | > 100 µM (inactive) | > 100 µM (inactive) | > 100 µM (inactive) | > 100 µM (inactive) | > 100 µM (inactive) | > 100 µM (inactive) | > 100 µM (inactive) | > 100 µM (inactive) | > 100 µM (inactive) | > 100 µM (inactive)
N#CC(C(=O)C(=O)Nc1ccccc1)c1ccccc1 (configuration not stated) | > 100 µM (inactive) | > 100 µM (inactive) | > 100 µM (inactive) | > 100 µM (inactive) | > 100 µM (inactive) | > 100 µM (inactive) | > 100 µM (inactive) | > 100 µM (inactive) |  | > 100 µM (inactive) | > 100 µM (inactive) | > 100 µM (inactive) | > 100 µM (inactive) | > 100 µM (inactive) | > 100 µM (inactive) | > 100 µM (inactive) | > 100 µM (inactive) | 
Cc1nn(-c2ccccc2)c(-c2ccccc2[N+](=O)[O-])c1CC#N | 82.2 µM (inactive) | 62.1 µM (inactive) | > 100 µM (inactive) |  | > 100 µM (inactive) | > 100 µM (inactive) | 78.5 µM (inactive) | > 100 µM (inactive) | > 100 µM (inactive) | > 100 µM (inactive) | > 100 µM (inactive) | > 100 µM (inactive) | > 100 µM (inactive) | > 10 µM (inactive) | > 100 µM (inactive) | 87.7 µM (inactive) | 29.4 µM (inactive) | 45 µM (inactive)
CCc1ccccc1NC(=O)C1=C(C)NC(C)=C(C(=O)Nc2ccccc2CC)C1c1cccc([N+](=O)[O-])c1 | 11.5 µM (inactive) | 52 µM (inactive) | 29 µM (inactive) |  | 21.5 µM (inactive) | 33.2 µM (inactive) |  | 43 µM (inactive) | 34.7 µM (inactive) | 12.1 µM (inactive) | 40.9 µM (inactive) | 32.1 µM (inactive) | 29.5 µM (inactive) | 47.5 µM (inactive) | 21.8 µM (inactive) | 36.6 µM (inactive) | 35.9 µM (inactive) | 10.5 µM (inactive)
